According to paper PMC12428237, “Study on the Calcium Transport-Promoting Property and Mechanism of the Peptide–Calcium Complex DEEENDQVK–Ca Based on a Caco-2 Monolayer Model” (Foods, 2025):

What was measured:
Type in all cases: cell-based, human
[1] = test system: Caco-2 monolayer; assay: Calcium transport channel assay with channel regulators; settings: then 2 mg/mL sample, 120 min, 37 °C, n = 3
Description: Before the calcium transport channel assay, 0.5 mL of HBSS buffer containing different channel regulators was added to the AP sides of the Transwell chambers. These channel regulators included 2-APB (25 μmol/L) as a calcium channel inhibitor of TRPV6, cytochalasin D (0.5 μmol/ mL) as a paracellular channel promoter, and mβCD (3 mmol/L) as an endocytic channel inhibitor. The group without the added channel regulator served as the control group. The BL side received a 1.5 mL HBSS buffer. Following 30 min incubation, solutions were removed from both sides. The AP side was then loaded with 0.5 mL of either DK–Ca (2 mg/mL) or 2 mg/mL DK + 7.5 mM CaCl2 solution, while the BL side received 1.5 mL HBSS. After 120 min incubation at 37 °C and 5% CO2, the BL solution was collected for calcium transport analysis.

[2] = test system: occludin; assay: RT-qPCR, occludin mRNA expression; settings: Caco-2 monolayer, 24 h, 2 mg/mL DK–Ca or 2 mg/mL DK + 7.5 mM CaCl2; normalized to GAPDH, 2^-ΔΔCt; n = 3
Description: The expression levels of genes related to calcium transport channels were determined following the method of Li et al.. After 21 days of establishing the Caco-2 monolayer model, the monolayers were treated for 24 h with a complete medium containing 2 mg/mL DK–Ca or 2 mg/mL DK + 7.5 mM CaCl2. The group without an added sample served as the control group. Subsequently, the monolayers were washed thrice with HBSS buffer before cell lysis using 200 μL RNAiso Plus. Total RNA was extracted, and first-strand cDNA synthesis was subsequently performed with the PrimeScript® RT reagent kit as per the kit manufacturer’s instructions. Using cDNA as a template, RT-qPCR was performed with gene-specific primers targeting TRPV6, calbindin-D9k, PMCA1b, occludin, and claudin-2. The standard procedure for PCR amplification was as follows: 95 °C for 30 s, followed by 40 cycles of 95 °C for 5 s, 60 °C for 30 s, and 72 °C for 1 min. Target gene expression level was normalized to GAPDH and calculated using the 2^^(-ΔΔCt) relative quantification method. In experimental groups, GAPDH served as the internal reference gene for normalization. All primer sequences used in this study are detailed in Table S1.

[3] = test system: Caco-2 monolayer; assay: Calcium transport assay in Caco-2 monolayer model; settings: 120 min
Description: Caco-2 cells (passages 15–30) were seeded at 1 × 10^5 cells/mL in Transwell chambers (12 mm, 0.4 μm pores, polycarbonate membrane, 1.12 cm^2 area) to establish a Caco-2 monolayer model. The culture medium (0.5 mL in the apical and 1.5 mL in the basolateral) was refreshed every 48 h (first week), then daily (next two weeks). The integrity of the Caco-2 cell monolayer model was verified by the following multiple indicators: Transepithelial electrical resistance (TEER) was monitored every 48 h using an epithelial voltohmmeter (RE1600, Beijing Jingong Hongtai Technology Co., Ltd., Beijing, China). Alkaline phosphatase (ALP) activity was measured on days 8, 12, 14, 16, and 21 after inoculation utilizing an ALP assay kit, following the manufacturer’s protocol. Transepithelial permeability was evaluated using sodium fluorescein following the method of Qiu et al..
Caco-2 monolayer models with a TEER value exceeding 500 Ω·cm^2 are permitted for calcium transport studies. Following three sequential washes with Hank’s balanced salt solution (HBSS; calcium/magnesium-free, pH 7.4), monolayers were equilibrated at 37 °C for 30 min. Afterward, the Transwell chambers were moved to fresh receiver plates for transport assays.
Concentration-dependent CaCl2 transport assay: 0.5 mL of CaCl2 solution (1.5~10 mM) was added to the apical (AP) side. The basolateral (BL) side contained 1.5 mL prewarmed HBSS. After 120 min incubation at 37 °C and 5% CO2, the BL side solution was collected for calcium transport analysis.
Time-dependent CaCl2 transport assay: The AP side contained 0.5 mL of 7.5 mM CaCl2 solution, and the BL side 1.5 mL prewarmed HBSS. At designated intervals (30~180 min), 1 mL BL side solution was collected and replaced with equal volumes of fresh HBSS buffer to maintain consistency.
Different concentrations of DK solution (0.5~2 mg/mL, 0.5 mL) containing 7.5 mM CaCl2, or 0.5 mL of DK–Ca solution (0.5~2 mg/mL), were added to the AP side. The BL side contained 1.5 mL prewarmed HBSS. The control group contained 7.5 mM CaCl2 alone on the AP side. At designated intervals (30~180 min), 1 mL BL side solution was collected and replaced with equal volumes of fresh HBSS buffer to maintain consistency.
Calcium concentration in the collected sample was measured using a calcium colorimetric assay kit at 575 nm. Transported calcium was calculated as follows:(1) Tn=1.5Cn+1×∑k=1n-1Ck […]

With “DEEENDQVK–Ca [DK–Ca, complex formed by chemically chelating DK with CaCl2]” the “reduction of transported calcium by 2-APB treatment compared to the control group” value ([1]; 2-APB (25 μmol/L, TRPV6 inhibitor) pre-incubation 30 min on AP side) was 43.94%, the “improvement of transported calcium by cytochalasin D treatment compared to the control group” value ([1]; cytochalasin D (0.5 μmol/ mL, paracellular channel promoter) pre-incubation 30 min on AP side) was 14.82% and the “reduction of transported calcium by mβCD treatment compared to the control group” value ([1]; mβCD (3 mmol/L, endocytic channel inhibitor) pre-incubation 30 min on AP side) was 12.35%. The “occludin mRNA expression compared to the control group” value [2] was “unchanged”, the transported calcium ([3]; 2 mg/mL DK–Ca (calcium content 300 μg/mL) on AP side, AP to BL, HBSS pH 7.4, 37 °C, calcium colorimetric kit 575 nm, mean ± SD, n = 3) was 74.11 ± 1.25 μg/well and the “transported calcium, fold higher than that of the CaCl2 control group” value ([3]; calcium content 300 μg/mL (2 mg/mL peptide sample), AP to BL, 37 °C) was 1.83 fold. The “calcium transport-promoting capacity relative to DK + CaCl2” value ([3]; equivalent calcium dose (7.5 mM)) was 1.37 times.
